Read-outs that look alike come from different tables or passages of the source.
How the values were obtained:
[1] = cited from earlier work
[2] = Plasma Cmin and Cmax of PI/NNRTI in HIV-positive women on cART (LC-MS/MS); assay type: in vivo, human; conditions: for Cmin Intra-patient CV median (IQR) / Cmax median ratio to historical population mean (IQR) / Cmax n (%) >1.5 Historical pop mean (percent of participants) / Cmin median ratio to historical population mean (IQR) / Cmin n (%) >1.5 historical pop Mean (percent of participants) / Cmax Inter-patient CV / Cmin Inter-patient CV / Cmin Study participants median (IQR) / Cmin Mean (SD) / Cmax at 3 h / Cmax at 5 h / Cmax at 2 h / Cmax: HIV-positive women; for Cmin Intra-patient CV median (IQR): 3 weekly visits; for Cmax Inter-patient CV: from individual median Cmax; for Cmin Inter-patient CV: from individual median Cmin; for Cmin Study participants median (IQR) / Cmin Mean (SD) / Cmax at 3 h / Cmax at 5 h / Cmax at 2 h / Cmax: plasma; for Cmin Study participants median (IQR) / Cmin Mean (SD): pre-dose, in ng/mL; for Cmax at 3 h / Cmax at 5 h / Cmax at 2 h / Cmax: female, human, oral; for Cmax at 3 h: 3 hours post-dose; for intra-patient variability for Cmax, in words / intra-patient variability for Cmin, in words / inter-patient variability (CV) for both Cmin and Cmax, in words: compared among the regimens; for intra-patient variability for Cmax, in words / inter-patient variability (CV) for both Cmin and Cmax, in words: nevirapine and lopinavir/ritonavir as BID; for intra-patient variability for Cmin, in words: nevirapine as BID; for Cmax at 5 h: 600 mg, 5 hours post-dose; for Cmax at 2 h: 2 hours post-dose
Method: Patients were asked to fast from midnight of the previous night. One hour before their scheduled morning dose the pre-dose blood collection was drawn (Cmin t) (alternative arrangements were made if the patient took their drugs in the evening). […] Concentrations of the PIs and the NNRTIs in plasma were measured simultaneously by sensitive and selective, validated high-performance liquid chromatography coupled to tandem mass-spectroscopy (LC-MS/MS). All samples were analyzed at the pharmacokinetic laboratory at the Ottawa Hospital Research Institute in Ottawa, Canada. The PK endpoints for each patient were determined by taking the median of the three weekly values for the Cmin and Cmax. The rationale for measuring drug levels at three separate time points was that there is potentially intra-individual variability in drug levels, especially for PIs. Using the median value for the endpoints eliminated outliers. The three drug level measurements allowed for the calculation of intra-patient variability. […] Next, for each subject the ratio of their median Cmin and Cmax for their main PI or NNRTI to this published drug level was calculated and used as the primary outcome as previously reported by Burger et al. […] Inter-patient variability of Cmin and Cmax for each antiretroviral drug was assessed by calculating the coefficient of variation (CV) using each individual’s median Cmin and Cmax. […] These values are summarized using median and IQR of the individual CVs. […] Finally, linear regression models were fit to assess correlates of the square root-transformed Cmin and Cmax ratios. […] The regression models included indicator variables to account for the different antiretroviral medications and each potential correlate was included separately in an adjusted model. Statistical analyses were performed using SAS Version 9.2 (SAS Institute, Cary, North Carolina, USA).

## CC(C)(C)NC(=O)[C@@H]1C[C@@H]2CCCC[C@@H]2CN1C[C@@H](O)[C@H](Cc1ccccc1)NC(=O)[C@H](CC(N)=O)NC(=O)c1ccc2ccccc2n1 [saquinavir]
[1]; in vivo
  serum levels in women versus men: significantly higher in women than in men

## COC(=O)N[C@H](C(=O)N[C@@H](Cc1ccccc1)[C@@H](O)CN(Cc1ccc(-c2ccccn2)cc1)NC(=O)[C@@H](NC(=O)OC)C(C)(C)C)C(C)(C)C [Atazanavir boosted with ritonavir, atazanavir]
[2]; 300 QD boosted with ritonavir
  Cmin Intra-patient CV median (IQR): 26.3 (15.6-56.1)
  Cmax median ratio to historical population mean (IQR): 0.66 (0.51-0.85)
  Cmax n (%) >1.5 Historical pop mean (percent of participants): 0 (0.0%)
  Cmin median ratio to historical population mean (IQR): 0.97 (0.77-1.42)
  Cmin n (%) >1.5 historical pop Mean (percent of participants): 4 (22.2%)
  Cmax Inter-patient CV: 41.4%
  Cmin Inter-patient CV: 65.6%
  Cmin Mean (SD): 1065.6 (699.2)
[2]; 300 mg QD with ritonavir 100 mg
  Cmin Study participants median (IQR): 835 (663–1220)
[2]; 300 mg QD with ritonavir 100 mg, read-out: Cmax Study participants median (IQR)
  Cmax at 3 h: 3430 ng/mL
[2]; 300 QD boosted with ritonavir, read-out: Cmax Mean (SD)
  Cmax at 3 h: 3530 ng/mL

## O=C1Nc2ccc(Cl)cc2[C@@](C#CC2CC2)(C(F)(F)F)O1 [Efavirenz, efavirenz]
[1]; in vivo
  serum levels in women: higher
[2]; 600 QD
  Cmin Intra-patient CV median (IQR): 17.7 (10.5-25.1)
  Cmax median ratio to historical population mean (IQR): 0.79 (0.57-1.27)
  Cmax n (%) >1.5 Historical pop mean (percent of participants): 4 (25.0%)
  Cmin median ratio to historical population mean (IQR): 0.95 (0.67-1.95)
  Cmin n (%) >1.5 historical pop Mean (percent of participants): 6 (37.5%)
  Cmax Inter-patient CV: 52.4%
  Cmin Inter-patient CV: 55.0%
  Cmin Mean (SD): 2196.9 (1209.2)
[2]; 600 mg QD
  Cmin Study participants median (IQR): 1680 (1180–3450)
[2]
  intra-patient variability for Cmax, in words: lowest intra-patient variability
  intra-patient variability for Cmin, in words: lowest intra-patient variability
[2]; 600 mg QD, read-out: Cmax Study participants median (IQR)
  Cmax at 5 h: 3240 ng/mL
[2]; 600 QD, read-out: Cmax Mean (SD)
  Cmax at 5 h: 3930 ng/mL

## CC(C)CN(C[C@@H](O)[C@H](Cc1ccccc1)NC(=O)O[C@H]1CO[C@H]2OCC[C@H]21)S(=O)(=O)c1ccc(N)cc1 [darunavir]
[1]; women versus men, product monographs
  increase in AUC in women: approximately 20%

## Cc1ccnc2c1NC(=O)c1cccnc1N2C1CC1 [Nevirapine, nevirapine]
[1]; in vivo
  exposure in pregnant women: lower
  serum levels in women: higher
[2]; 200 BID
  Cmin Intra-patient CV median (IQR): 13.9 (10.2-27.8)
  Cmax median ratio to historical population mean (IQR): 0.96 (0.84-1.37)
  Cmax n (%) >1.5 Historical pop mean (percent of participants): 2 (18.2%)
  Cmin median ratio to historical population mean (IQR): 1.41 (0.91-1.93)
  Cmin n (%) >1.5 historical pop Mean (percent of participants): 5 (45.5%)
  Cmax Inter-patient CV: 37.8%
  Cmin Inter-patient CV: 45.4%
  Cmin Mean (SD): 5693.6 (2586.8)
[2]; 400 QD
  Cmin Intra-patient CV median (IQR): 21.3 (12.1-44.9)
  Cmax median ratio to historical population mean (IQR): 0.96 (0.72-1.40)
  Cmax n (%) >1.5 Historical pop mean (percent of participants): 1 (12.5%)
  Cmin median ratio to historical population mean (IQR): 2.08 (0.90-2.53)
  Cmin n (%) >1.5 historical pop Mean (percent of participants): 5 (62.5%)
  Cmax Inter-patient CV: 39.9%
  Cmin Inter-patient CV: 57.0%
  Cmin Mean (SD): 5027.9 (2867.2)
[2]; all doses of the drug pooled
  Cmax median ratio to historical population mean (IQR): 0.96 (0.81-1.37)
  Cmax n (%) >1.5 Historical pop mean (percent of participants): 3 (15.8%)
  Cmin median ratio to historical population mean (IQR): 1.62 (0.91-2.32)
  Cmin n (%) >1.5 historical pop Mean (percent of participants): 10 (52.6%)
[2]; 200 mg BID
  Cmin Study participants median (IQR): 5270 (3380–7190)
[2]; 400 mg QD
  Cmin Study participants median (IQR): 5995 (2590–7275)
[2]; compared among the antiretrovirals
  Cmin ratio to published population mean, in words: highest ratios
[2]
  inter-patient variability (CV) for both Cmin and Cmax, in words: least inter-patient variability
  intra-patient variability for Cmax, in words: lowest intra-patient variability
  intra-patient variability for Cmin, in words: lowest intra-patient variability
[2]; 200 mg, 200 mg BID, read-out: Cmax Study participants median (IQR)
  Cmax at 2 h: 5510 ng/mL
[2]; 200 mg, 200 BID, read-out: Cmax Mean (SD)
  Cmax at 2 h: 6490 ng/mL
[2]; 400 mg, 400 mg QD, read-out: Cmax Study participants median (IQR)
  Cmax at 2 h: 6400 ng/mL
[2]; 400 mg, 400 QD, read-out: Cmax Mean (SD)
  Cmax at 2 h: 6920 ng/mL

## Cc1cccc(C)c1OCC(=O)N[C@@H](Cc1ccccc1)[C@@H](O)C[C@H](Cc1ccccc1)NC(=O)[C@H](C(C)C)N1CCCNC1=O [Lopinavir boosted with ritonavir, lopinavir]
[1]; in vivo
  increase in AUC in women: approximately 20%
[2]; 400 BID boosted with ritonavir
  Cmin Intra-patient CV median (IQR): 23.8 (12.8-75.8)
  Cmax n (%) >1.5 Historical pop mean (percent of participants): 0 (0.0%)
  Cmin n (%) >1.5 historical pop Mean (percent of participants): 3 (18.8%)
  Cmax Inter-patient CV: 32.8%
  Cmin Inter-patient CV: 44.7%
  Cmin Mean (SD): 6370.0 (2846.4)
[2]; 800 QD boosted with ritonavir
  Cmin Intra-patient CV median (IQR): 63.4 (35.2- 115)
  Cmax n (%) >1.5 Historical pop mean (percent of participants): 0 (0.0%)
  Cmin n (%) >1.5 historical pop Mean (percent of participants): 3 (75.0%)
  Cmax Inter-patient CV: 39.8%
  Cmin Inter-patient CV: 72.5%
  Cmin Mean (SD): 5356.2 (3882.3)
[2]; all doses of the drug pooled
  Cmax n (%) >1.5 Historical pop mean (percent of participants): 0 (0.0%)
  Cmin n (%) >1.5 historical pop Mean (percent of participants): 6 (30.0%)
[2]; 400 mg BID with ritonavir 100 mg
  Cmin Study participants median (IQR): 6660 (4360–7710)
[2]; 800 mg QD with ritonavir 200 mg
  Cmin Study participants median (IQR): 6445 (2452–8260)
[2]
  inter-patient variability (CV) for both Cmin and Cmax, in words: least inter-patient variability
  intra-patient variability for Cmax, in words: lowest intra-patient variability
[2]; 800 mg QD with ritonavir 200 mg, read-out: Cmax Study participants median (IQR)
  Cmax: 11700 ng/mL
[2]; 800 QD boosted with ritonavir, read-out: Cmax Mean (SD)
  Cmax: 11200 ng/mL
